Blank lines part the entries; values can stand above or below the molecule they belong to.
Test system: 624824-186-R-J2-PDC multicell spheroids, viability
Experiment: Anticancer human tumor 624824-186-R-J2-PDC patient-derived colon adenocarcinoma cell line growth inhibition [PI3K]
Details: for IC50: curve of first compound; for viability, T/C: stronger effect = lower value
How it was run: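 Tumor cells were combined with HUVEC and MSCs into spheroids, then dosed with PI3K-inhibitor combinations over half-log ranges capped near clinical Cmax or 10 microM.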

[1] = second compound 0.00316 µM, first compound 0.0316 µM
[2] = second compound 0.00316 µM, first compound 0.1 µM
[3] = second compound 0.00316 µM, first compound 0.316 µM
[4] = second compound 0.00316 µM, first compound 1 µM
[5] = second compound 0.01 µM, first compound 0.0316 µM
[6] = second compound 0.01 µM, first compound 0.1 µM
[7] = second compound 0.01 µM, first compound 0.316 µM
[8] = second compound 0.01 µM, first compound 1 µM
[9] = second compound 0.0316 µM, first compound 0.0316 µM
[10] = second compound 0.0316 µM, first compound 0.1 µM
[11] = second compound 0.0316 µM, first compound 0.316 µM
[12] = second compound 0.0316 µM, first compound 1 µM
[13] = second compound 0.1 µM, first compound 0.0316 µM
[14] = second compound 0.1 µM, first compound 0.1 µM
[15] = second compound 0.1 µM, first compound 0.316 µM
[16] = second compound 0.1 µM, first compound 1 µM
[17] = second compound 0.316 µM, first compound 0.0316 µM
[18] = second compound 0.316 µM, first compound 0.1 µM
[19] = second compound 0.316 µM, first compound 0.316 µM
[20] = second compound 0.316 µM, first compound 1 µM
[21] = second compound 1 µM, first compound 0.0316 µM
[22] = second compound 1 µM, first compound 0.1 µM
[23] = second compound 1 µM, first compound 0.316 µM
[24] = second compound 1 µM, first compound 1 µM
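Also: spheroids exposed to agents for 7 days before viability read.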
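For viability, T/C in this document: 100% = DMSO vehicle treated spheroids.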

IC50 (second compound 0.00316 µM): > 10 µM
IC50 (second compound 0.01 µM): > 10 µM
IC50 (second compound 0.0316 µM): > 10 µM
IC50 (second compound 0.1 µM): > 10 µM
IC50 (second compound 0.316 µM): > 10 µM
IC50 (second compound 1 µM): > 10 µM
Compound: CC(C)NCC(C(=O)N1CCN(c2ncnc3c2C(C)CC3O)CC1)c1ccc(Cl)cc1 (centres undefined) + COc1c(OCCCN2CCOCC2)ccc2c3n(c(=NC(=O)c4cnc(N)nc4)nc12)CCN3
viability, T/C [1]: 117%
viability, T/C [2]: 85%
viability, T/C [3]: 81.3%
viability, T/C [4]: 89.2%
viability, T/C (second compound 0.00316 µM, first compound 3.16 µM): 78.7%
viability, T/C (second compound 0.00316 µM, first compound 10 µM): 75.2%
viability, T/C [5]: 97.2%
viability, T/C [6]: 96.4%
viability, T/C [7]: 85.7%
viability, T/C [8]: 77.4%
viability, T/C (second compound 0.01 µM, first compound 3.16 µM): 87.4%
viability, T/C (second compound 0.01 µM, first compound 10 µM): 79.8%
viability, T/C [9]: 91.6%
viability, T/C [10]: 84.5%
viability, T/C [11]: 73.6%
viability, T/C [12]: 89.7%
viability, T/C (second compound 0.0316 µM, first compound 3.16 µM): 70.5%
viability, T/C (second compound 0.0316 µM, first compound 10 µM): 78.3%
viability, T/C [13]: 76%
viability, T/C [14]: 75.5%
viability, T/C [15]: 68.7%
viability, T/C [16]: 63.2%
viability, T/C (second compound 0.1 µM, first compound 3.16 µM): 77.4%
viability, T/C (second compound 0.1 µM, first compound 10 µM): 64.7%
viability, T/C [17]: 60.1%
viability, T/C [18]: 66%
viability, T/C [19]: 62.1%
viability, T/C [20]: 67.3%
viability, T/C (second compound 0.316 µM, first compound 3.16 µM): 62.3%
viability, T/C (second compound 0.316 µM, first compound 10 µM): 66.3%
viability, T/C [21]: 58.6%
viability, T/C [22]: 54.3%
viability, T/C [23]: 62.4%
viability, T/C [24]: 61.7%
viability, T/C (second compound 1 µM, first compound 3.16 µM): 65%
viability, T/C (second compound 1 µM, first compound 10 µM): 56.5%

IC50 (second compound 0.00316 µM): > 1 µM
IC50 (second compound 0.01 µM): > 1 µM
IC50 (second compound 0.0316 µM): > 1 µM
IC50 (second compound 0.1 µM): > 1 µM
IC50 (second compound 0.316 µM): > 1 µM
IC50 (second compound 1 µM): > 1 µM
Compound: CCN1CCN(Cc2ccc(Nc3ncc(F)c(-c4cc(F)c5nc(C)n(C(C)C)c5c4)n3)nc2)CC1 + COc1c(OCCCN2CCOCC2)ccc2c3n(c(=NC(=O)c4cnc(N)nc4)nc12)CCN3
viability, T/C (second compound 0.00316 µM, first compound 0.00316 µM): 94.1%
viability, T/C (second compound 0.00316 µM, first compound 0.01 µM): 90.4%
viability, T/C [1]: 107%
viability, T/C [2]: 76.5%
viability, T/C [3]: 89.4%
viability, T/C [4]: 106%
viability, T/C (second compound 0.01 µM, first compound 0.00316 µM): 120%
viability, T/C (second compound 0.01 µM, first compound 0.01 µM): 73.7%
viability, T/C [5]: 78.7%
viability, T/C [6]: 75.9%
viability, T/C [7]: 81.7%
viability, T/C [8]: 94.6%
viability, T/C (second compound 0.0316 µM, first compound 0.00316 µM): 91.8%
viability, T/C (second compound 0.0316 µM, first compound 0.01 µM): 99.1%
viability, T/C [9]: 75.3%
viability, T/C [10]: 66.9%
viability, T/C [11]: 80.5%
viability, T/C [12]: 89.9%
viability, T/C (second compound 0.1 µM, first compound 0.00316 µM): 81.1%
viability, T/C (second compound 0.1 µM, first compound 0.01 µM): 63.4%
viability, T/C [13]: 64.6%
viability, T/C [14]: 54.2%
viability, T/C [15]: 68.2%
viability, T/C [16]: 83.8%
viability, T/C (second compound 0.316 µM, first compound 0.00316 µM): 69.1%
viability, T/C (second compound 0.316 µM, first compound 0.01 µM): 57.6%
viability, T/C [17]: 58.9%
viability, T/C [18]: 58.9%
viability, T/C [19]: 69.4%
viability, T/C [20]: 91.8%
viability, T/C (second compound 1 µM, first compound 0.00316 µM): 64.2%
viability, T/C (second compound 1 µM, first compound 0.01 µM): 56.9%
viability, T/C [21]: 61.4%
viability, T/C [22]: 62.9%
viability, T/C [23]: 72.9%
viability, T/C [24]: 88%
